The values below come from publication PMC7956344, “Structure Elucidation and Cholinesterase Inhibition Activity of Two New Minor Amaryllidaceae Alkaloids” (Molecules, 2021).

Like-named read-outs stand apart in the source and are kept apart here.

Data set [1] deals with T1, human butyrylcholinesterase (hBuChE) (Homo sapiens, UniProt P06276). In words: hBuChE inhibition assay (modified Ellman method, BuTChI substrate). It counts as biochemical. The following applies: for IC50: mean ± SEM of three independent measurements, each in triplicate; for % Inhibition hBuChE ± SEM / inhibition at 100 µM: tested at 100 µM compound concentration; for % Inhibition hBuChE ± SEM: 100 µM; for inhibition at 100 µM: read-out: % Inhibition hBuChE ± SEM. A general note: In Ellman's method for cholinesterases, released thiocholine reacts with DTNB.
T1 sequence (P06276 29-602): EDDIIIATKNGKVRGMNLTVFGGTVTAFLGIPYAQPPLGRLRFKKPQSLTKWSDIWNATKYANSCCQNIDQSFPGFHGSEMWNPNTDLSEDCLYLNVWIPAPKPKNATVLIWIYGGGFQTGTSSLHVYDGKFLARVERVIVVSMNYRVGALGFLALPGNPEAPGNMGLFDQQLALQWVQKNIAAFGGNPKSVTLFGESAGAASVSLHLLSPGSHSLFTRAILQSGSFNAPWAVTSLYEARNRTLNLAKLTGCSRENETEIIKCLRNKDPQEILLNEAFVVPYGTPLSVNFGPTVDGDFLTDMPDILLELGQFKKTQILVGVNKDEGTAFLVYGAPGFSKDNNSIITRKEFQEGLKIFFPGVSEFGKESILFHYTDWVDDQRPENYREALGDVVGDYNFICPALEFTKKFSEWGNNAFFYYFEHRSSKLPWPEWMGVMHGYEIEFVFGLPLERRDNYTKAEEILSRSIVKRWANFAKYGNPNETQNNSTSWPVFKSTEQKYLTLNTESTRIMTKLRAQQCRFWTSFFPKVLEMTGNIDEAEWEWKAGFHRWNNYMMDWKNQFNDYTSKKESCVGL

For data set [2], the target named is T1, human butyrylcholinesterase (hBuChE). The settings on record: previously isolated narcikachnine-type alkaloids; cited from earlier work.
A further data set relates to POP. The following applies: previously isolated narcikachnine-type alkaloids; cited from earlier work.
For data set [3] the following is noted: indicated centrally active crossing of the BBB via passive diffusion; cited from earlier work.

For the compound `COc1cc2c(cc1O)[C@@H](O)O[C@@H]1CC=C3CCN(C)[C@H]3[C@H]21` [9-O-demethyllycorenine (1), 9-O-demethyllycorenine], in data set [1], the half-maximal inhibitory concentration (IC50) (as a rule, the concentration needed to halve the response being measured) is over 100 µM; the “% Inhibition hBuChE ± SEM” value is recorded as “almost devoid of cholinesterase inhibitory activity”; the inhibition (usually the percentage by which the read-out fell short of the control) at 100 µM came to 30.2 ± 0.8%.
`COc1ccc2c3c1OC1CC(=O)CCC31CCN(Cc1cc3c(cc1-c1cccc4c1N(C)CC4)OCO3)C2` (stereo not shown) [narcimatuline]: the IC50 in data set [2] is 5.9 ± 0.2 µM; in the data set with POP it was 29.2 ± 1 µM.
Regarding `COc1cc(-c2cccc3c2N(C)CC3)c(CN2CC[C@@]34C=C[C@H](O)C[C@@H]3Oc3c(OC)ccc(c34)C2)cc1O` [narciabduliine (2), narciabduliine], in data set [1], the IC50 was 3.44 ± 0.02 µM, the “% Inhibition hBuChE ± SEM” value is listed as 94.1 ± 0.2% and the inhibition at 100 µM is over 90%.
In the case of `COc1ccc2c3c1OC1CC(O)CCC31CCN(Cc1cc3c(cc1-c1cccc4ccn(C)c14)OCO3)C2` (stereo not shown) [narcipavline], the IC50 in data set [2] is 24.4 ± 1.2 µM.
For the compound `COc1cc(-c2cccc3c2N(C)CC3)c(CN2CC[C@@]34C=C[C@H](O)C[C@@H]3Oc3c(OC)ccc(c34)C2)c(OC)c1OC` [narcieliine], in data set [3], the “in vitro permeability (Pe)” value is recorded as 14.1 ± 1.0 × 10^−6 cm·s^−1. The IC50 in data set [2] was 1.3 ± 0.3 µM; in the data set with POP, 163 ± 13 µM.
Regarding `COc1ccc2c3c1O[C@H]1C[C@@H](O)C=C[C@@]31CCN(C)C2` [galantamine], the inhibition at 100 µM in data set [1] came to 68.2 ± 1.2%.
